Entries after “also recorded” stand apart in the source; their conditions may differ. Like-named read-outs stand apart in the source and are kept apart here. Ends that are not written are not given here.
Key:
[1] = Example 1: DOX ± HNG in B16 cell transplanted mice study, body weight and survival; conditions: for Body weight: B16 inoculated C57BL/6 male mice, DOX 5 mg/Kg weekly IP, HNG 5 mg/Kg daily IP
Protocol: Mouse B16 melanoma cells were cultured in 75 cm^2 flasks and incubated at 37° C. in a humidified chamber with 5% CO2 to generate enough cells for inoculating 10,000 cells/mouse×40 mice. After 5-7 days culture, B16 cells were collected and cell viability determined using the Trypan Blue stain and the number of living cells were counted under microscope.
Treatment Schedule: 7 weeks old C57BL/6 male mouse, control without tumor inoculation (n=6) and four other groups (n=10 each group) received B16 tumor cells (10,000/mouse) injection under the skin in the right flank. One group was not treated; another group received HNG IP injection, 5 mg/Kg BM, daily×40 days (HNG); the third group received Doxorubicin (DOX), IP injection, 5 mg/Kg BW, weekly×6 injections; and the last group DOX+HNG (Table 5).
The mice in the DOX treated group would receive 6 weekly injections of DOX and daily injection of HNG until Day 40. Body weights and tumor cell injection site were checked 3 times per week. Echocardiogram was scheduled at day 26 and repeated at day 40. Twenty four hours after echocardiogram examination, animals were sacrificed; whole blood, plasma, epididymis, heart, lung, testis, liver, spleen, kidney, intestine, muscle, skin, and femur bone were collected. Sperm in the cauda epididymis were counted and COMET assay for DNA damage of sperm assessed. Whole blood was collected for CBC analysis and plasma saved for measurement of HNG level or other bio-parameters. Testes were fixed in Bouin's or formaldehyde for immunohistochemistry and TUNEL analyses.

[2] = tested on: cardiac fibrosis; assay: Example 3: Masson's Trichrome quantification of fibrosis in hearts; conditions: for cardiac fibrosis: compared to controls
[3] = tested on: Dox-induced cardiotoxicity mouse model; assay: Example 3: M-mode echocardiography of cardiac function
[4] = tested on: nuclear-gene-encoded mitochondrial gene expression; assay: Example 3: mitochondrial gene focused qRT-PCR array of mouse hearts
[5] = tested on: uncoupling protein 2 (Ucp2); assay: Example 3: Ucp2 protein by ProteinSimple (Wes) assay in ventricle lysates; format: in vivo, mouse
Protocol: Left ventricle samples from mice were sonicated in RIPA buffer (Sigma) supplemented with EDTA-free protease inhibitor cocktail tablets (Roche), and cell debris removed by centrifugation. The protein concentration was analyzed by Bio-Rad Protein Assay and measured by Beckman Du-640 Spectrophotometer.
Protein measurement for the uncoupling protein 2 (Ucp2) was performed using ventricle tissue lysates from control, Dox only, Dox+HNG, Dox+DRZ, and Dox+HNG+DRZ treated mice. Protein expression was quantified by Wes Separation Module with 25 Capillary Cartridges for 12-230 kDa (Wes®). Proteins (4 microgram/sample) were separated through a size-resolving matrix in capillaries, immobilized to the inner capillary wall, incubated with anti-Ucp2 rabbit monoclonal antibody (Cell Signaling) at concentration of 1 μg/ml and anti-rabbit secondary antibodies before detection using chemiluminescence. Signals reflected as the area under the curve of Ucp2 protein were generated automatically at the end of the run. The Ucp2 protein levels were quantified by a ratio of the area under the curve from each sample that was normalized by the corresponding area under the curve of the corresponding total protein.

[6] = tested on: DOX-induced cardiotoxicity; assay: Example 1: heart weight and echocardiogram in DOX ± HNG treated mice; format: in vivo, mouse
Protocol: The heart containing left and right ventricles were fixed with formalin for hematoxylin/eosin and trichrome staining and TUNEL to detect apoptotic cell. Heart sections were saved for immunohistochemistry. Pieces of left ventricle were fixed with gluteraldehyde for later mitochondria analysis by EM. Heart was snapped frozen and stored at −80 degrees (left and right atriums plus the rest of ventricles) for molecular studies (e.g. ANP/BNP).
Echocardiogram was performed on three mice from each group on day 32, and the rest of the mice on days 34 and 38. […] However when corrected for body weight, the heart: body weight ratio was not different among the groups (FIGS. 3A & 3B.)

[7] = Example 3: outcome and general health (deaths, body weight, heart weight)
[8] = mouse, in vivo
[9] = tested on: Atrial Natriuretic Factor (ANF); assay: Example 3: real-time PCR of ANF transcripts in left ventricular tissue; conditions: for expression levels of ANF mRNA: heart, compared to control
[10] = tested on: cardiomyocytes; assay: Example 3: cardiomyocyte apoptosis by tropomyosin/TUNEL co-localization; conditions: for cardiomyocytes apoptosis: ten weeks, compared to control
[11] = tested on: DOX induced cardiotoxicity; assay: Example 2: echocardiogram ejection fraction, Dox, HNG and DRZ alone or in combinations; format: in vivo, mouse
Protocol: In this second experiment, adult male mice were used. These mice received for 8 weeks IP injections of saline daily (control), Doxorubicin (DOX 3 mg/week IP for 8 injections), HNG 5 mg/day IP), Dexrazoxane (DRZ 60 mg/week IP at the same time as Doxorubicin) either alone or in combinations as shown in FIG. 5. All animals received 8 weeks of injections.

[12] = patients with cancer, cited from earlier work
[13] = tested on: cells; conditions: compared with HN; cited from earlier work
[14] = tested on: membrane receptor; conditions: cited from earlier work
[15] = target: BAX (Homo sapiens, UniProt Q07812); conditions: cited from earlier work
[16] = tested on: Dox-induced cardiotoxicity mouse model; conditions: in vivo
[17] = tested on: Atrial Natriuretic Factor (ANF); conditions: mouse, in vivo
[18] = tested on: cardiac fibrosis; conditions: mouse, in vivo
[19] = tested on: cardiomyocytes; conditions: mouse, in vivo
[20] = cited from earlier work
[21] = target: IGFBP-3 (Homo sapiens, UniProt P17936); conditions: cited from earlier work
[22] = 84 genes examined, threshold of 1.1 fold
[23] = positive up-regulation, negative down-regulation
[24] = echocardiogram days 32-38, vs non-treated and HNG treated mice

BAX, sequence (Q07812 whole entry, species assumed): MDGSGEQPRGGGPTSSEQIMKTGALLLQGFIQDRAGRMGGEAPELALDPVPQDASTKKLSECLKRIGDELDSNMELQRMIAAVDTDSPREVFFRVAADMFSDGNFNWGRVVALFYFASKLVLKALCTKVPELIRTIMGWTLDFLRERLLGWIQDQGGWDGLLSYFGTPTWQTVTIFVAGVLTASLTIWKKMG
IGFBP-3, sequence (P17936 28-291, species assumed): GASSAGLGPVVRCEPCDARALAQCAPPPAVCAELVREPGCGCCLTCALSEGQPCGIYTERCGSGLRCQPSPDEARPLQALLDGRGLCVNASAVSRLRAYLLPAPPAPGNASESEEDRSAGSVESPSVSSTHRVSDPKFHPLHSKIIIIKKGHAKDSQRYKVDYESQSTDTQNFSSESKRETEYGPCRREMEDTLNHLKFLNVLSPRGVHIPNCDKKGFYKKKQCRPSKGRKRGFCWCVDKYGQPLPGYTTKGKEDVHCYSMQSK

## COc1cccc2c1C(=O)c1c(O)c3c(c(O)c1C2=O)C[C@@](O)(C(=O)CO)C[C@@H]3O[C@H]1C[C@H](N)[C@H](O)[C@H](C)O1 [DOX, Doxorubicin]
[1]
  Body weight: started to lose weight at about day 8 to 10; also recorded: significant loss in weight; also recorded: decreased weight
[1]; DOX halted after 4th injection, up to day 38-40
  Survival (mice survived / mice in group): 4/10
[1]; day 29, p<0.05
  Body weight loss, DOX vs DOX+HNG: lost more weight than the mice treated with DOX+HNG; also recorded: losing significantly more weight
[2]
  cardiac fibrosis: significantly induced a cardiac fibrosis response
[3]; 9.5 weeks after treatment
  ejection fraction: significantly decreased
  fractional shortening: significantly decreased
  heart rate: significantly decreased
  left ventricle posterior wall thickening: significantly decreased
[3]; accumulative dose of 24 mg/kg body weight in mice
  time after Dox treatment until Dox-induced cardiac dysfunction occurred: ≥ 8 weeks
[4]; [22]
  number of genes down-regulated as compared to control: 5 genes
  number of genes up-regulated as compared to control: 78 genes
[4]; 84 genes examined, threshold of 2-fold
  number of genes upregulated as compared to control: 12 genes
[4]; [23]
  Bbc3 Dox-induced gene expression (Fold changes as compared to control): 3.27 Fold changes
  Bcl2 Dox-induced gene expression (Fold changes as compared to control): 2.23 Fold changes
  Cox18 Dox-induced gene expression (Fold changes as compared to control): 2.01 Fold changes
  NefI Dox-induced gene expression (Fold changes as compared to control): 3.07 Fold changes
  Sfn Dox-induced gene expression (Fold changes as compared to control): 2.55 Fold changes
  Slc25a17 Dox-induced gene expression (Fold changes as compared to control): 2.00 Fold changes
  Slc25a20 Dox-induced gene expression (Fold changes as compared to control): 2.53 Fold changes
  Slc25a21 Dox-induced gene expression (Fold changes as compared to control): 2.35 Fold changes
  Slc25a22 Dox-induced gene expression (Fold changes as compared to control): 3.12 Fold changes
  Slc25a23 Dox-induced gene expression (Fold changes as compared to control): 5.83 Fold changes
  Ucp2 Dox-induced gene expression (Fold changes as compared to control): 2.03 Fold changes
  Ucp3 Dox-induced gene expression (Fold changes as compared to control): 2.73 Fold changes
[4]; qRT-PCR, heart
  Ucp2 and Ucp3 mRNA expression: increased Ucp2 and Ucp3 mRNA expression
[5]; compared to control
  Ucp2 protein expression: significantly decreased Ucp2 protein expression
[6]; Example 1 mice at sacrifice
  Heart weight: significantly lower than the non-treated and HNG treated mice; also recorded: smaller hearts than non-treated and HNG treated mice
[6]; [24]
  ejection fraction: decrease in ejection fraction; also recorded: lower ejection fraction
  fractional ventricular shortening: decrease; also recorded: lower fractional shortening
[7]; 10 mice per group, 10 weeks
  mice died before the termination of the experiment: three
[8]
  body weight (BW) at the end of 10 weeks: significantly decreased body weight
[9]
  expression levels of ANF mRNA: significantly increased
[10]
  cardiomyocytes apoptosis: significantly increased cardiomyocytes apoptosis
[11]; adult male mice, DOX 3 mg/week IP for 8 injections, FIG. 6
  Ejection fraction (EF): highly significant decrease in EF
[12]; cumulative dose of 400 mg/m^2
  incidence of congestive heart failure: 3 to 5%
[12]; cumulative dose of 550 mg/m^2
  incidence of congestive heart failure: 7 to 26%

## HN-C8A: HN mutant, Cys8 to Ala; MAPRGFSALLLLTSEIDLPVKRRA (SEQ ID NO: 33)
[13]
  Cytoprotective Action: Not effective, prevents HN self-
[14]
  Characteristics: membrane receptor binding: Loss of membrane receptor

## HN-C8P: HN mutant, Cys8 to Pro (MAPRGFSPLLLLTSEIDLPVKRRA; UniProt Q8IVG9 1-24, looked up, variant C8P)
[15]
  Characteristics: BAX binding: Loss of BAX binding
[13]
  Cytoprotective Action: Not effective, blocks intracellular

## MAPRGFSCLLLLTGEIDLPVKRRA [HNG]
[1]
  Body weight: gained weight; also recorded: increased weight
[16]
  cardiac parameters (heart rate, LV posterior wall thickening, fractional shortening, ejection fraction): did not show any altered cardiac parameters
[7]; surviving mice, compared to control
  body weight (BW) at the end of 10 weeks: no significant adverse effect on body weight
[17]
  expression levels of ANF mRNA: did not significantly altered ANF transcripts
[18]
  cardiac fibrosis: no changes of fibrosis
[19]
  cardiomyocytes apoptosis: did not induce significant levels of cardiomyocytes apoptosis

## C[C@@H](CN1CC(=O)NC(=O)C1)N1CC(=O)NC(=O)C1 [DRZ, Dexrazoxane]
[2]
  cardiac fibrosis: no changes of fibrosis
[2]; in Dox-treated mice
  Dox-induced cardiac fibrosis, effect of co-treatment: did not reduce Dox-induced cardiac fibrosis
[3]; Dox-treated mice, summary
  Dox-induced cardiac dysfunction, protective effect: improved heart function impaired by Dox treatment
[3]; without Dox, compared to controls across the treatment period
  cardiac parameters (heart rate, LV posterior wall thickening, fractional shortening, ejection fraction): did not show any altered cardiac parameters
[4]; qRT-PCR, Dox-treated mice
  Dox-induced Ucp2 and Ucp3 mRNA expression, effect of co-treatment: reversed Dox-induced Ucp2 and Ucp3 mRNA expression to control levels
[5]; Dox-treated mice
  Ucp2 protein suppressed by Dox, effect of co-treatment: significantly normalized Ucp2 protein suppressed by Dox to control levels
[7]; in Dox-treated mice
  Dox-induced BW loss, effect of co-treatment: attenuated the Dox-induced BW loss
[20]; has been shown
  testicular toxicity: induce testicular toxicity
[20]; patients receiving high doses of anthracyclines
  significant adverse events: decreased granulocytes and platelets
[8]
  body weight (BW) at the end of 10 weeks: no significant adverse effect on body weight
[9]; added to Dox-treated mice
  Dox-increased ANF expression, effect of addition: returned expression of ANF to control levels
[9]
  expression levels of ANF mRNA: did not significantly altered ANF transcripts
[10]; Dox-treated mice, ten weeks after treatment
  Dox-induced cardiomyocytes apoptosis, effect of co-treatment: no markedly protective effect
[10]
  cardiomyocytes apoptosis: did not induce significant levels of cardiomyocytes apoptosis
[11]; DOX treated mice, HNG 5 mg/day IP, DRZ 60 mg/week IP
  DOX-induced decrease in EF, effect of co-treatment: ameliorated

## HN-F6A: HN mutant, Phe6 to Ala (MAPRGASCLLLLTSEIDLPVKRRA; UniProt Q8IVG9 1-24, looked up, variant F6A)
[13]
  Cytoprotective Action: Similar/more effective than HN
[21]
  Characteristics: IGFBP-3 binding: Loss of IGFBP-3 binding

## HN-L12A: HN mutant, Leu12 to Ala (MAPRGFSCLLLATSEIDLPVKRRA; UniProt Q8IVG9 1-24, looked up, variant L12A)
[13]
  Cytoprotective Action: HN antagonist, forms inactive

## HN-S7A: HN mutant, Ser7 to Ala; MAPRGFACLLLLTSEIDLPVKRRA (SEQ ID NO: 35)
[13]
  Cytoprotective Action: Not effective, prevents HN self-
[14]
  Characteristics: membrane receptor binding: Loss of membrane receptor

Source: patent US10792331B2, “Methods for reducing cardiotoxicity from chemotherapy by administering humanin analog compositions” (LOS ANGELES BIOMEDICAL RESEARCH INSTITUTE AT HARBOR-UCLA …, priority 2015, dated 2020)
